Converted amounts (≈) assume the structure as drawn.

Eight molecules from ChEMBL document CHEMBL4765457, “Targeting dual tolerant regions of binding pocket: Discovery of novel morpholine-substituted diarylpyrimidines as potent HIV-1 NNRTIs with significantly improved water solubility” (Eur J Med Chem, 2020) can be followed below.

Data set [1] concerns Human immunodeficiency virus 1. Nature of the data set: Antiviral activity against HIV1 3B infected in human MT4 cells assessed as virus-induced cytopathic effect incubated for 5 days by MTT assay. Format: functional, organism-based. As to conditions: Human immunodeficiency virus 1, 3B, MT4, 120 h. In general terms: Damage to the host cells serves as the signal in cytopathic effect assays.

Data set [2] relates to Human immunodeficiency virus 1. Nature of the data set: Antiviral activity against HIV1 RES056 infected in human MT4 cells assessed as inhibition of virus-induced cytopathic effect incubated for 5 days by MTT assay. The format is functional, organism-based. The settings on record: Human immunodeficiency virus 1, RES056, MT4, 120 h.
A short description of data set [3]: Cytotoxicity against human MT4 cells assessed as reduction in cell viability incubated for 5 days by MTT assay. As to conditions: time 5 day. The format is cell-based. In general terms: Tetrazolium assays rely on reduction of a dye to a coloured formazan, in cell work by metabolically active cells.
The nature of data set [4]: Selectivity index, ratio of CC50 for human MT4 cells to EC50 for antiviral activity against HIV1 3B infected in human MT4 cells. As to conditions: read-out: Ratio CC50/EC50. Format: toxicity, cell-based.
Data set [5] in a line: Selectivity index, ratio of CC50 for human MT4 cells to EC50 for antiviral activity against HIV1 RES056 infected in human MT4 cells. Format: toxicity, cell-based. The settings on record: read-out: Ratio CC50/EC50.
The subject of data set [6] is Human immunodeficiency virus 1. Nature of the data set: Antiviral activity against HIV1 harboring RT L100I mutant infected in human MT4 cells assessed as inhibition of virus-induced cytopathic effect incubated for 5 days by MTT assay. Format: functional, organism-based. The settings on record: Human immunodeficiency virus 1, MT4, 120 h.
In data set [7] the test system is Human immunodeficiency virus 1. Nature of the data set: Antiviral activity against HIV1 harboring RT K103N mutant infected in human MT4 cells assessed as inhibition of virus-induced cytopathic effect incubated for 5 days by MTT assay. The settings on record: Human immunodeficiency virus 1, MT4, 120 h. The format is functional, organism-based.
The subject of data set [8] is Human immunodeficiency virus 1. Nature of the data set: Antiviral activity against HIV1 harboring RT Y181C mutant infected in human MT4 cells assessed as inhibition of virus-induced cytopathic effect incubated for 5 days by MTT assay. The format is functional, organism-based. The settings on record: Human immunodeficiency virus 1, MT4, 120 h.
The subject of data set [9] is Human immunodeficiency virus 1. Nature of the data set: Antiviral activity against HIV1 harboring RT Y188L mutant infected in human MT4 cells assessed as inhibition of virus-induced cytopathic effect incubated for 5 days by MTT assay. As to conditions: Human immunodeficiency virus 1, MT4, 120 h. Format: functional, organism-based.
In data set [10] the test system is Human immunodeficiency virus 1. The data set is described as follows: Antiviral activity against HIV1 harboring RT E138K mutant infected in human MT4 cells assessed as inhibition of virus-induced cytopathic effect incubated for 5 days by MTT assay. The format is functional, organism-based. The settings on record: Human immunodeficiency virus 1, MT4, 120 h.
Data set [11] deals with Human immunodeficiency virus 1. Nature of the data set: Antiviral activity against HIV1 harboring RT F227L/V106Amutant infected in human MT4 cells assessed as inhibition of virus-induced cytopathic effect incubated for 5 days by MTT assay. The format is functional, organism-based. As to conditions: Human immunodeficiency virus 1, MT4, 120 h.
A short description of data set [12]: Resistance index, ratio of EC50 for antiviral activity against HIV1 expressing RT L100I mutant infected in human MT4 cells to EC50 for antiviral activity against HIV1 3B infected in human MT4 cells. Format: functional.
Data set [13] is described as follows: Resistance index, ratio of EC50 for antiviral activity against HIV1 expressing RT K103N mutant infected in human MT4 cells to EC50 for antiviral activity against HIV1 3B infected in human MT4 cells. Format: functional.
Data set [14] is described as follows: Resistance index, ratio of EC50 for antiviral activity against HIV1 expressing RT Y181C mutant infected in human MT4 cells to EC50 for antiviral activity against HIV1 3B infected in human MT4 cells. Format: functional.
The nature of data set [15]: Resistance index, ratio of EC50 for antiviral activity against HIV1 expressing RT Y188L mutant infected in human MT4 cells to EC50 for antiviral activity against HIV1 3B infected in human MT4 cells. The format is functional.
The nature of data set [16]: Resistance index, ratio of EC50 for antiviral activity against HIV1 expressing RT E138K mutant infected in human MT4 cells to EC50 for antiviral activity against HIV1 3B infected in human MT4 cells. The format is functional.
Data set [17] is described as follows: Resistance index, ratio of EC50 for antiviral activity against HIV1 expressing RT F227L/V106A mutant infected in human MT4 cells to EC50 for antiviral activity against HIV1 3B infected in human MT4 cells. The format is functional.
The nature of data set [18]: Inhibition of HIV1 reverse transcriptase assessed as reduction in biotin-dUTP incorporation into template preincubated for 1 hr followed by template/primer and dNTP addition and measured after 1 hr by ELISA. The arrangement: species or system Human immunodeficiency virus 1. Background: In an ELISA, binding on a coated surface is turned into a signal by an enzyme label.

A short description of data set [19]: Solubility of compound in water at pH 7.4. The format is physicochemical.
A short description of data set [20]: Solubility of compound in water at pH 7. The format is physicochemical.
Data set [21] in a line: Solubility of compound in water at pH 2. The format is physicochemical.

The term EC50 denotes the midpoint of the concentration-response curve. Broadly, the CC50 is the concentration that lowers cell viability or growth by half. For the molecule `Cc1cc(C#N)cc(C)c1Oc1nc(NC2CCN(CC(=O)N3CCOCC3)CC2)nc2c1CSC2`, the EC50 in data set [1] is 0.154 µM; in data set [2], greater than 64.6 µM; in [6], 24.4 µM; in data set [7] it was 3.73 µM; in [8] it was 13.4 µM; in [9] it was 7.45 µM. For the same molecule, the EC50 worked out at 0.627 µM in data set [10] and 41.2 µM in data set [11]. In data set [3], the CC50 at 120 h is 64.6 µM. Further, the selectivity ratio in data set [4] was 420; in data set [5], less than 1. The “Ratio EC50” value in data set [12] was determined as 158.7; in [13] it was 24.2; in data set [14] it was 86.9; in [15] it was 48.4; in [16], 4.1; in data set [17], 267.3.
As for `Cc1cc(C#N)cc(C)c1Oc1nc(NC2CCN(CC(=O)N3CCOCC3)CC2)nc2scnc12`, the EC50 in data set [1] was 0.14 µM; in data set [2], greater than 129 µM; in data set [6], 15.1 µM; in [7] it was 3.74 µM; in data set [8], 3.06 µM; in data set [9] it was 12.1 µM. Also, the EC50 in data set [10] was 0.703 µM; in [11] it was 35.9 µM. The CC50 at 120 h in [3] was determined as 129 µM. Moreover, the figures for the selectivity ratio in data set [4] and in data set [5] were 919 and less than 1, respectively. Besides, the “Ratio EC50” value was 107.7 in [12]; 26.7 in data set [13]; 21.8 in data set [14]; 86 in [15]; 5 in data set [16]; 256.1 in data set [17].
Usually IC50 stands for the concentration that inhibits the measured activity by half. In general, solubility refers to how much of the substance goes into solution per volume. For `Cc1cc(C#N)cc(C)c1Oc1nc(NC2CCN(CCN3CCOCC3)CC2)nc2ccsc12`, the EC50 in data set [1] is 0.087 µM; in data set [2] it was greater than 36.8 µM; in data set [6] it was 8.7 µM; in [7], 1.04 µM; in data set [8] it was 8.35 µM; in data set [9], 9.39 µM. Also, the EC50 in data set [10] amounted to 0.437 µM; in data set [11] it was 7.14 µM. Also, in data set [3], the CC50 at 120 h is 36.8 µM. Further, the selectivity ratio in data set [4] was 423; in data set [5] it was less than 1. In addition, the “Ratio EC50” value in data set [12] stood at 99.9; in data set [13] it was 11.9; in [14], 95.8; in [15], 107.9; in [16] it was 5; in [17], 81.9. Also, the IC50 in [18] came out at 2.53 µM. For the same molecule, the solubility in [19] came to 15.6 µg/mL (≈ 31.7 µM); in data set [20], 24.4 µg/mL (≈ 49.5 µM); in [21], 207 µg/mL (≈ 420 µM).
With `Cc1cc(C#N)cc(C)c1Oc1nc(NC2CCN(CCN3CCOCC3)CC2)nc2sccc12`, the concentration giving a half-maximal response (EC50) in data set [1] is 0.065 µM; in [2], greater than 37.9 µM; in data set [6], 14.7 µM; in data set [7] it was 0.61 µM; in data set [8] it was 6.9 µM; in [9] it was 45.2 µM. Further, the EC50 in data set [10] was 0.586 µM; in data set [11], 18.7 µM. In addition, the CC50 at 120 h in data set [3] stood at 37.9 µM. For the same molecule, the figures for the selectivity ratio in data set [4] and in data set [5] were 579 and less than 1, respectively. Besides, the “Ratio EC50” value is 224.5 in [12]; 9.3 in data set [13]; 105.5 in data set [14]; 690.6 in data set [15]; 9 in [16]; 285.5 in [17]. In addition, in data set [18], the IC50 came to 2.36 µM. For the same molecule, the solubility in data set [19] was 19.7 µg/mL (≈ 40 µM); in data set [20] it was 29.3 µg/mL (≈ 59.5 µM); in [21], 243 µg/mL (≈ 493 µM).
Turning to `Cc1cc(C#N)cc(C)c1Oc1nc(NC2CCN(CC(=O)N3CCOCC3)CC2)nc2c1CCC2`, the EC50 in data set [1] is 0.106 µM; in data set [2], greater than 73.5 µM; in data set [6] it was 15.9 µM; in [7], 2.54 µM; in data set [8], 10.6 µM; in [9] it was 6.48 µM. Besides, the EC50 came out at 1.12 µM in data set [10] and 27 µM in data set [11]. In data set [3], the CC50 at 120 h was determined as 73.5 µM. The selectivity ratio was 696 in data set [4] and less than 1 in data set [5]. The “Ratio EC50” value was determined as 150.4 in data set [12]; 24.1 in data set [13]; 100.8 in data set [14]; 61.4 in [15]; 10.6 in data set [16]; 256 in data set [17].
For the molecule `Cc1cc(C#N)cc(C)c1Oc1nc(NC2CCN(CCN3CCOCC3)CC2)nc2c1CSC2`, the EC50 in [1] was 0.173 µM; in data set [2] it was greater than 28.5 µM; in [6] it was 16.6 µM; in data set [7], 1.96 µM; in [8], 13.2 µM; in data set [9] it was 13.8 µM. Also, the EC50 was 1.18 µM in data set [10] and 11.8 µM in data set [11]. The CC50 at 120 h in data set [3] came out at 28.5 µM. Also, the selectivity ratio is 164 in data set [4] and less than 1 in [5]. The “Ratio EC50” value is given as 95.6 in data set [12]; 11.3 in data set [13]; 76.2 in data set [14]; 79.7 in data set [15]; 6.8 in data set [16]; 68.4 in data set [17].
With `Cc1cc(C#N)cc(C)c1Oc1nc(Nc2ccc(C#N)cc2)nc(N)c1Br` [ETRAVIRINE], the EC50 in data set [2] was 0.038 µM; in data set [6], 0.005 µM; in [7], 0.003 µM; in [8], 0.014 µM; in data set [9], 0.014 µM; in data set [10] it was 0.007 µM. In addition, the EC50 in data set [11] stood at 0.018 µM. Further, the CC50 at 120 h in data set [3] is greater than 4.59 µM. For the same molecule, the selectivity ratio in [4] was greater than 1640; in data set [5] it was greater than 122. For the same molecule, the “Ratio EC50” value in data set [12] is reported as 1.9; in [13] it was 1; in data set [14] it was 4.9; in [15], 4.9; in [16], 2.6; in [17], 6.3. The IC50 in data set [18] turned out to be 0.059 µM.
Consider `Nc1ccn([C@@H]2CS[C@H](CO)O2)c(=O)n1` [LAMIVUDINE], for which the EC50 in data set [1] stood at 5.02 µM; in data set [2], 8.35 µM; in data set [6], 1.62 µM; in data set [7], 3.75 µM; in data set [8], 4.79 µM; in data set [9] it was 3.36 µM. Also, the EC50 in [10] stood at 6.64 µM; in [11], 2.77 µM. Moreover, the CC50 at 120 h in data set [3] was greater than 87.2 µM. The figures for the selectivity ratio in data set [4] and in data set [5] were greater than 17 and greater than 10, respectively. Also, the “Ratio EC50” value is given as 0.3 in data set [12]; 0.7 in data set [13]; 1 in data set [14]; 0.7 in data set [15]; 1.3 in data set [16]; 0.6 in [17].
